Reference: ChEMBL document CHEMBL4118280, “An imidazole based H-Phe-Phe-NH2 peptidomimetic with anti-allodynic effect in spared nerve injury mice” (Bioorg Med Chem Lett, 2018)
Active and inactive are the calls of the source.

What was measured:
Mus musculus [1] = assay: Antiallodynic activity in ip dosed NMRI mouse model of spared nerve injury-induced mechanical allodynia assessed as pain relief administered 14 days post spared nerve injury surgery measured at 15 to 60 mins post dose by Von Frey filament assay; assay type: functional
Mus musculus [2] = assay: Antiallodynic activity in NMRI mouse model of spared nerve injury-induced mechanical allodynia assessed as pain relief at 12 umol/kg, ip administered 14 days post spared nerve injury surgery measured at 45 mins post dose by Von Frey filament assay; assay type: functional, organism-based
Mus musculus [3] = assay: Antiallodynic activity in NMRI mouse model of spared nerve injury-induced mechanical allodynia assessed as pain relief at 585 umol/kg, ip administered 14 days post spared nerve injury surgery measured at 180 mins post dose by Von Frey filament assay; assay type: functional, organism-based
Mus musculus [4] = assay: Antiallodynic activity in NMRI mouse model of spared nerve injury-induced mechanical allodynia assessed as pain relief at 585 umol/kg, ip administered 14 days post spared nerve injury surgery measured at 60 mins post dose by Von Frey filament assay; assay type: functional, organism-based
Mus musculus [5] = assay: Antiallodynic activity in NMRI mouse model of spared nerve injury-induced mechanical allodynia assessed as pain relief at 585 umol/kg, ip administered 14 days post spared nerve injury surgery measured at 30 mins post dose Von Frey filament assay; assay type: functional, organism-based
[6] = Apparent permeability from apical to basolateral side in human Caco2 cells at 100 uM after 15 to 120 mins by LC-MS analysis; assay type: ADME, cell-based; conditions: Caco-2
[7] = Apparent permeability from apical to basolateral side in human Caco2 cells assessed as mass balance at 100 uM after 15 to 120 mins by LC-MS analysis; assay type: ADME, cell-based; conditions: Caco-2, read-out: Activity
Mus musculus [8] = assay: Antiallodynic activity in NMRI mouse model of spared nerve injury-induced mechanical allodynia assessed as increase in mechanical threshold at 1.85 to 1850 nmol/kg, ip administered 14 days post spared nerve injury surgery measured at 45 mins post dose by Von Frey filament assay; assay type: functional, organism-based
[9] = Apparent permeability from basolateral to apical side in human Caco2 cells at 100 uM after 15 to 120 mins by LC-MS analysis; assay type: ADME, cell-based; conditions: Caco-2
[10] = Cytotoxicity against Sprague-Dawley rat primary cortical cells assessed as reduction in […] at 10^-5 to 10^-9 M after 24 hrs by LDH assay; assay type: cell-based
Mus musculus [11] = assay: Antiallodynic activity in NMRI mouse model of spared nerve injury-induced mechanical allodynia assessed as increase in mechanical threshold at 1.85 to 1850 nmol/kg, ip administered 14 days post spared nerve injury surgery measured at 30 mins post dose by Von Frey filament assay; assay type: functional, organism-based
[12] = Half life in NMRI mouse plasma at 4 uM after 180 mins by LC-MS/MS analysis; assay type: ADME, cell-free
Mus musculus [13] = assay: Antiallodynic activity in NMRI mouse model of spared nerve injury-induced mechanical allodynia assessed as increase in mechanical threshold at 185 nmol/kg, ip administered 14 days post spared nerve injury surgery measured at 15 to 60 mins post dose by Von Frey filament assay; assay type: functional, organism-based
Mus musculus [14] = assay: Antiallodynic activity in NMRI mouse model of spared nerve injury-induced mechanical allodynia assessed as increase in mechanical threshold at 185 to 1850 nmol/kg, ip administered 14 days post spared nerve injury surgery measured at 15 to 60 mins post dose by Von Frey filament assay; assay type: functional, organism-based
Mus musculus [15] = assay: Antiallodynic activity in NMRI mouse model of spared nerve injury-induced mechanical allodynia assessed as increase in mechanical threshold at 185 nmol/kg, ip administered 14 days post spared nerve injury surgery and co-treated with 1850 nmol/kg, ip D-SP1-7 by Von Frey filament assay; assay type: functional, organism-based
[16] = Apparent permeability from basolateral to apical side in human Caco2 cells assessed as mass balance at 100 uM after 15 to 120 mins by LC-MS analysis; assay type: ADME, cell-based; conditions: Caco-2, read-out: Activity
[17] = Cytotoxicity against Sprague-Dawley rat primary cortical cells assessed as reduction in cell viability at 10^-5 to 10^-9 M after 24 hrs by MTT assay; assay type: cell-based
Mus musculus [18] = assay: Antiallodynic activity in ip dosed NMRI mouse model of spared nerve injury-induced mechanical allodynia assessed as increase in mechanical threshold administered 14 days post spared nerve injury surgery by Von Frey filament assay; assay type: functional, organism-based
[19] = Efflux ratio of apparent permeability from basolateral to apical over apical to basolateral side in human Caco2 cells at 100 uM after 15 to 120 mins by LC-MS analysis; assay type: ADME, cell-based; conditions: Caco-2
Mus musculus [20] = assay: Potency index, ratio of gabapentin ED50 to compound ED50 for antiallodynic activity in ip dosed NMRI mouse model of spared nerve injury-induced mechanical allodynia by Von Frey filament assay; assay type: functional
[21] = Half life in human plasma at 4 uM after 180 mins by LC-MS/MS analysis; assay type: ADME, cell-free
Mus musculus [22] = assay: Potency index, ratio of morphine ED50 to compound ED50 for antiallodynic activity in ip dosed NMRI mouse model of spared nerve injury-induced mechanical allodynia by Von Frey filament assay; assay type: functional

| Compound | ED50 (Mus musculus [1]) [µmol/kg] | Papp A→B at 100 µM [6] [×10⁻⁶ cm/s] | recovery at 100 µM [7] [%] | Papp B→A at 100 µM [9] [×10⁻⁶ cm/s] | half-life at 4 µM [12] [min] | Activity (Mus musculus [13]) | recovery at 100 µM [16] [%] | efflux ratio at 100 µM [19] | other results |
| --- | --- | --- | --- | --- | --- | --- | --- | --- | --- |
| CN1CC[C@]23c4c5ccc(O)c4O[C@H]2[C@@H](O)C=C[C@H]3[C@H]1C5 [MORPHINE] | 6.5 |  |  |  |  |  |  |  | Activity (Mus musculus [2]): Active |
| NCC1(CC(=O)O)CCCCC1 [GABAPENTIN] | 336 |  |  |  |  |  |  |  | Activity (Mus musculus [3]): inactive; Activity (Mus musculus [4]): Active; Activity (Mus musculus [5]): Active |
| NC(=O)[C@H](Cc1ccccc1)NC(=O)c1[nH]cnc1-c1ccccc1 | 0.21 | 0.84 | 65 | 16 | ≥ 180 | Active | 67 | 19 | Activity (Mus musculus [8]): inactive; Activity [10]: Non-Toxic; Activity (Mus musculus [11]): Active; Activity (Mus musculus [14]): Active; Activity (Mus musculus [15]): inactive; Activity [17]: Non-Toxic; Activity (Mus musculus [18]): Dose-dependent effect; Ratio ED50 (Mus musculus [20]): 1600; half-life at 4 µM [21]: > 180 min; Ratio ED50 (Mus musculus [22]): 30 |
| H-RPKPQQF-OH |  |  |  |  | 4.4 |  |  |  |  |
| H-RPKPQQF-NH2 |  |  |  |  | 6.4 | Active |  |  |  |
| OC[C@@H](O)[C@@H](O)[C@H](O)[C@H](O)CO [MANNITOL] |  | 0.1 | 97 to 101 | 0.2 |  |  | 99 to 103 | 1.4 |  |
